Test results published in paper PMC8474115 (Journal of Medicinal Chemistry, 2021).
“And” between values parts separate entries of the source, which are not always exact repeats. Equal values may be shown once. Where a name gives a salt, the structure may show the parent alone. Read-outs that look alike come from different tables or passages of the source.

Experiments:
5-HT3R = molecular target: T1, 5-HT3R (Cavia porcellus, UniProt O70212); details: for antagonist effect: percent inhibition of response to 5-HT 3 μM (contraction of guinea pig ileum); for functional classification at 5-HT3R: guinea pig ileum contraction
T1 sequence (O70212 20-490): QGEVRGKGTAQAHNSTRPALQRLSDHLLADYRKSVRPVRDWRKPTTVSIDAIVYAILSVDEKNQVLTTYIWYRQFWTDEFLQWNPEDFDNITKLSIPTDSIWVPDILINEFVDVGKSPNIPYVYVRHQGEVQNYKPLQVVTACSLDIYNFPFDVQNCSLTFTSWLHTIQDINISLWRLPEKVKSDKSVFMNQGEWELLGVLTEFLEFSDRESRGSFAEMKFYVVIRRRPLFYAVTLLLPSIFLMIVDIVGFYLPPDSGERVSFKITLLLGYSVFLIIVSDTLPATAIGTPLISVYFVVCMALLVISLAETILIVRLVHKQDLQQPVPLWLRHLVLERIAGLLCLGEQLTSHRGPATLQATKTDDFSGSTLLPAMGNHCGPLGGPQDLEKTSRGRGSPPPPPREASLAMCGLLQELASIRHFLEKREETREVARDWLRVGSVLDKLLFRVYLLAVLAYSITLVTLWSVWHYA
Procedure: Isolated guinea pig ileum was employed to test the affinity and the intrinsic activity of the investigated compounds for 5-HT3 receptors. […] A 15 cm ileum segment was excised from the small intestine of male guinea pigs and immersed into a Krebs solution (NaCl 120 mM, KCl 5.6 mM, MgCl2 2.2 mM, CaCl2 2.4 mM, NaHCO3 19 mM, glucose 10 mM). After the first 5 cm length closest to the ileocaecal junction had been discarded 2 cm-long fragments were cut. Each segment of the ileum was placed in a 20 mL chamber of tissue organ bath system (Tissue Organ Bath System – 750 TOBS, DMT, Denmark) filled with the Krebs solution at 37° C, pH 7.4, with constant oxygenation (O2/CO2, 19:1), fixed by the lower end to a rod and by the upper end to the force–displacement transducer. The preparation was allowed to stabilize in organ baths for 60 min under a resting tension of 0.5 g, washing every 15 min with fresh Krebs solution. After the equilibration period, a cumulative concentration–response curve was constructed in each tissue for 5-HT (10 nM – 10 μM) by the method of van Rossum.[64] […] Selected compounds were tested using an additional method. After establishment of the first 5-HT concentration–response curve, washing out of the tissue, and stabilization period, the same tissues were subsequently incubated with one of the concentrations of the tested compound for 15 min and the next cumulative concentration curve to 5-HT was obtained. Only one concentration of a studied compound was tested in each piece of tissue.

h5-HT6R [1] = molecular target: T2, h5-HT6R (Homo sapiens, UniProt P50406); experiment: Inhibition of 5-CT-induced cAMP production in 1321N1 cells expressing h5-HT6R; format: cell-based; set-up: host or cells: 1321N1; details: 10^–6 M, percent inhibition of control agonist response
T2 sequence (P50406 whole entry): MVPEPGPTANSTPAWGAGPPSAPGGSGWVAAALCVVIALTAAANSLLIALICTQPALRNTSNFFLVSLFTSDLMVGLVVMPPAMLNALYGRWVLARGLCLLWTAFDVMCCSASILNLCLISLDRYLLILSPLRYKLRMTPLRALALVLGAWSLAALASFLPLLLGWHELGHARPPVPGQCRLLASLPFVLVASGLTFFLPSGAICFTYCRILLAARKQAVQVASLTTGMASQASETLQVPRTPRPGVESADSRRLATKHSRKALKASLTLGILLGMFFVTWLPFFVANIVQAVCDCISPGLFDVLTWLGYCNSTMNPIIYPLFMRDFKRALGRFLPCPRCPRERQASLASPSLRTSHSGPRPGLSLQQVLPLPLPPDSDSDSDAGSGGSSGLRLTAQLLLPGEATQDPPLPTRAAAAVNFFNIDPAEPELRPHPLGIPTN

h5-HT6R [2] = molecular target: T2, h5-HT6R; details: HEK cells stably expressing h5-HT6R
Procedure: For membrane preparation, cells after reaching 90% confluence, were washed with phosphate-buffered saline (PBS), and pelleted by centrifugation (200 × g) in PBS containing 0.1 mM EDTA and 1 mM dithiothreitol.
The total reaction volume was 200 μL. The incubation process was terminated by filtration through UniFilter-96 (PerkinElmer) plates with the FilterMate Universal Harvester (PerkinElmer, #C961962), and radioactivity retained on the filters was quantified on a MicroBeta counter for radiometric detection (PerkinElmer). […] To evaluate the level of nonspecific signal 10 μM of 5-HT for 5-HT1AR and 5-HT7R, 20 μM of mianserin for 5-HT2AR, 10 μM of methiothepine for 5-HT6R and 10 μM of haloperidol for D2LR were used. […] The acquired results were presented as the mean of at least two independent experiments.

Structure (SMILES) | melting point [°C] | antagonist effect (5-HT3R; 300 nM) | other results
O=S(=O)(c1ccccc1Cl)n1ccc2c(N3CCNCC3)nc3ccccc3c21 (as salt: hydrochloride) | 157 to 159 |  | 
O=S(=O)(c1ccc(F)c(F)c1)n1ccc2c(N3CCNCC3)nc3ccccc3c21 (as salt: hydrochloride) | 180 to 182 |  | 
O=S(=O)(c1ccc(Cl)c(Cl)c1)n1ccc2c(N3CCNCC3)nc3ccccc3c21 (as salt: hydrochloride) | 203 to 205 |  | 
O=S(=O)(c1cccc2ccccc12)n1ccc2c(N3CCNCC3)nc3ccccc3c21 (as salt: hydrochloride) | 218 to 220 |  | 
CN1CCN(c2nc3ccccc3c3c2ccn3S(=O)(=O)c2ccccc2)CC1 (as salt: hydrochloride) [Compound 6, 1-(Phenylsulfonyl)-4-(4-methylpiperazin-1-yl)-1H-pyrrolo[3,2-c]quinoline hydrochloride] | 127 to 129 |  | 
O=S(=O)(c1ccccc1)n1ccc2c(N3CCNCC3)nc3ccccc3c21 (as salt: hydrochloride) [Compound 7, 1-(Phenylsulfonyl)-4-(piperazin-1-yl)-1H-pyrrolo[3,2-c]quinoline dihydrochloride] | 130 to 132 |  | 
O=S(=O)(c1ccccc1)n1ccc2c(N[C@H]3CCNC3)nc3ccccc3c21 (as salt: hydrochloride) [Compound 8, (S)-1-(Phenylsulfonyl)-N-(pyrrolidin-3-yl)-1H-pyrrolo[3,2-c]quinolin-4-amine dihydrochloride] | 220 to 222 |  | 
O=S(=O)(c1ccccc1)n1ccc2c(NC3CNC3)nc3ccccc3c21 (as salt: hydrochloride) [Compound 9, N-(Azetidin-3-yl)-1-(phenylsulfonyl)-1H-pyrrolo[3,2-c]quinolin-4-amine dihydrochloride] | 243 to 246 |  | 
CNC1CCN(c2nc3ccccc3c3c2ccn3S(=O)(=O)c2ccccc2)C1 (centres unmarked) (as salt: hydrochloride) [Compound 10, N-Methyl-1-(1-(phenylsulfonyl)-1H-pyrrolo[3,2-c]quinolin-4-yl)pyrrolidin-3-amine dihydrochloride] | 256 to 258 |  | 
O=S(=O)(c1ccccc1)n1ccc2c(N3CCCNCC3)nc3ccccc3c21 (as salt: hydrochloride) [Compound 11, 4-(1,4-Diazepan-1-yl)-1-(phenylsulfonyl)-1H-pyrrolo[3,2-c]quinoline dihydrochloride] | 247 to 248 |  | 
CN1CCN(c2nc3ccccc3c3c2ccn3S(=O)(=O)c2cccc(F)c2)CC1 (as salt: hydrochloride) [Compound 12, 1-[(3-Fluorophenyl)sulfonyl]-4-(4-methylpiperazin-1-yl)-1H-pyrrolo[3,2-c]quinoline hydrochloride] | 176 to 177 |  | 
O=S(=O)(c1ccccc1Br)n1ccc2c(N3CCNCC3)nc3ccccc3c21 (as salt: hydrochloride) [Compound 15, 1-[(2-Bromophenyl)sulfonyl]-4-(piperazin-1-yl)-1H-pyrrolo[3,2-c]quinoline dihydrochloride] | 158 to 160 |  | 
O=S(=O)(c1cccc(Cl)c1)n1ccc2c(N3CCNCC3)nc3ccccc3c21 (as salt: hydrochloride) [Compound 18, 1-[(3-Chlorophenyl)sulfonyl]-4-(piperazin-1-yl)-1H-pyrrolo[3,2-c]quinoline dihydrochloride] | 161 to 163 |  | 
O=S(=O)(c1cccc(C(F)(F)F)c1)n1ccc2c(N3CCNCC3)nc3ccccc3c21 (as salt: hydrochloride) [Compound 19, 1-{[3-(Trifluoromethyl)phenyl]sulfonyl}-4-(piperazin-1-yl)-1H-pyrrolo[3,2-c]quinoline dihydrochloride] | 182 to 185 |  | 
Cc1cccc(S(=O)(=O)n2ccc3c(N4CCNCC4)nc4ccccc4c32)c1 (as salt: hydrochloride) [Compound 20, 1-[(3-Methylphenyl)sulfonyl]-4-(piperazin-1-yl)-1H-pyrrolo[3,2-c]quinoline dihydrochloride] | 179 to 181 |  | 
O=S(=O)(c1ccc(F)cc1)n1ccc2c(N3CCNCC3)nc3ccccc3c21 (as salt: hydrochloride) [Compound 22, 1-[(4-Fluorophenyl)sulfonyl]-4-(piperazin-1-yl)-1H-pyrrolo[3,2-c]quinoline dihydrochloride] | 172 to 174 |  | 

Structure (SMILES) | melting point [°C] | antagonist effect (5-HT3R; 300 nM) | other results
O=S(=O)(c1ccc(C(F)(F)F)cc1)n1ccc2c(N3CCNCC3)nc3ccccc3c21 (as salt: hydrochloride) [Compound 23, 1-{[4-(Trifluoromethyl)phenyl]sulfonyl}-4-(piperazin-1-yl)-1H-pyrrolo[3,2-c]quinoline dihydrochloride] | 165 to 167 |  | 
CC(C)c1ccc(S(=O)(=O)n2ccc3c(N4CCNCC4)nc4ccccc4c32)cc1 (as salt: hydrochloride) [Compound 24, 1-[(4-iso-Propylphenyl)sulfonyl]-4-(piperazin-1-yl)-1H-pyrrolo[3,2-c]quinoline dihydrochloride] | 212 to 214 |  | 
O=S(=O)(c1cc(F)ccc1F)n1ccc2c(N3CCNCC3)nc3ccccc3c21 (as salt: hydrochloride) [Compound 27, 1-[(2,5-Difluorophenyl)sulfonyl]-4-(piperazin-1-yl)-1H-pyrrolo[3,2-c]quinoline dihydrochloride] | 204 to 206 |  | 
CN1CCN(c2nc3ccccc3c3c2ccn3S(=O)(=O)c2ccccc2)CC1 [Compound 6, 1-(Phenylsulfonyl)-4-(4-methylpiperazin-1-yl)-1H-pyrrolo[3,2-c]quinoline hydrochloride] |  | 48% | antagonist effect (5-HT3R; 100 nM): 28%; functional classification at 5-HT3R (5-HT3R): antagonistic properties
O=S(=O)(c1ccccc1)n1ccc2c(N3CCNCC3)nc3ccccc3c21 [Compound 7, 1-(Phenylsulfonyl)-4-(piperazin-1-yl)-1H-pyrrolo[3,2-c]quinoline dihydrochloride] |  | 60% | antagonist effect (5-HT3R; 100 nM): 26%; functional classification at 5-HT3R (5-HT3R): antagonistic properties
O=S(=O)(c1ccccc1)n1ccc2c(N[C@H]3CCNC3)nc3ccccc3c21 [Compound 8, (S)-1-(Phenylsulfonyl)-N-(pyrrolidin-3-yl)-1H-pyrrolo[3,2-c]quinolin-4-amine dihydrochloride] |  | 32% and 32 (300 nM) % | 
O=S(=O)(c1ccccc1)n1ccc2c(NC3CNC3)nc3ccccc3c21 [Compound 9, N-(Azetidin-3-yl)-1-(phenylsulfonyl)-1H-pyrrolo[3,2-c]quinolin-4-amine dihydrochloride] |  | 35% and 35 (300 nM) % | 
CNC1CCN(c2nc3ccccc3c3c2ccn3S(=O)(=O)c2ccccc2)C1 (centres unmarked) [Compound 10, N-Methyl-1-(1-(phenylsulfonyl)-1H-pyrrolo[3,2-c]quinolin-4-yl)pyrrolidin-3-amine dihydrochloride] |  | 48% and 48 (300 nM) % | 
O=S(=O)(c1ccccc1)n1ccc2c(N3CCCNCC3)nc3ccccc3c21 [Compound 11, 4-(1,4-Diazepan-1-yl)-1-(phenylsulfonyl)-1H-pyrrolo[3,2-c]quinoline dihydrochloride] |  | 53% and 53 (300 nM) % | 
CN1CCN(c2nc3ccccc3c3c2ccn3S(=O)(=O)c2cccc(F)c2)CC1 [Compound 12, 1-[(3-Fluorophenyl)sulfonyl]-4-(4-methylpiperazin-1-yl)-1H-pyrrolo[3,2-c]quinoline hydrochloride] |  |  | antagonist effect (5-HT3R; 30 nM): 30%; antagonist effect (5-HT3R; 100 nM): 74%
CN1CCN(c2nc3ccccc3c3c2ccn3S(=O)(=O)c2cccc(Cl)c2)CC1 [Compound 13, 1-[(3-Chlorophenyl)sulfonyl]-4-(4-methylpiperazin-1-yl)-1H-pyrrolo[3,2-c]quinoline hydrochloride] |  | 44% | antagonist effect (5-HT3R; 100 nM): 10%
O=S(=O)(c1ccccc1Br)n1ccc2c(N3CCNCC3)nc3ccccc3c21 [Compound 15, 1-[(2-Bromophenyl)sulfonyl]-4-(piperazin-1-yl)-1H-pyrrolo[3,2-c]quinoline dihydrochloride] |  |  | antagonist effect (h5-HT6R [1]): 69%; Ki (h5-HT6R [2]): 13 nM
O=S(=O)(c1cccc(C(F)(F)F)c1)n1ccc2c(N3CCNCC3)nc3ccccc3c21 [Compound 19, 1-{[3-(Trifluoromethyl)phenyl]sulfonyl}-4-(piperazin-1-yl)-1H-pyrrolo[3,2-c]quinoline dihydrochloride] |  | 37% | antagonist effect (5-HT3R; 100 nM): 21%; pD2′ (5-HT3R; antagonist potency, guinea pig ileum): 6.09
COc1cccc(S(=O)(=O)n2ccc3c(N4CCNCC4)nc4ccccc4c32)c1 [Compound 21, 1-[(3-Methoxyphenyl)sulfonyl]-4-(piperazin-1-yl)-1H-pyrrolo[3,2-c]quinoline dihydrochloride] |  | 73% | antagonist effect (5-HT3R; 100 nM): 28%
O=S(=O)(c1cc(F)ccc1F)n1ccc2c(N3CCNCC3)nc3ccccc3c21 [Compound 27, 1-[(2,5-Difluorophenyl)sulfonyl]-4-(piperazin-1-yl)-1H-pyrrolo[3,2-c]quinoline dihydrochloride] |  | 32 (300 nM) % | 
